According to ChEMBL document CHEMBL1145498, “A systematic interaction map of validated kinase inhibitors with Ser/Thr kinases” (Proc Natl Acad Sci U S A, 2007):

Experiments:
[1] = molecular target: Serine/threonine-protein kinase VRK2 (Homo sapiens) (UniProt Q86Y07)
[2] = molecular target: Ribosomal protein S6 kinase alpha-3 (Homo sapiens) (UniProt P51812)
[3] = molecular target: Serine/threonine-protein kinase RIO2 (Homo sapiens) (UniProt Q9BVS4)
[4] = molecular target: Mitogen-activated protein kinase 11 (Homo sapiens, UniProt Q15759)
Sequence of Mitogen-activated protein kinase 11 (Q15759 whole entry): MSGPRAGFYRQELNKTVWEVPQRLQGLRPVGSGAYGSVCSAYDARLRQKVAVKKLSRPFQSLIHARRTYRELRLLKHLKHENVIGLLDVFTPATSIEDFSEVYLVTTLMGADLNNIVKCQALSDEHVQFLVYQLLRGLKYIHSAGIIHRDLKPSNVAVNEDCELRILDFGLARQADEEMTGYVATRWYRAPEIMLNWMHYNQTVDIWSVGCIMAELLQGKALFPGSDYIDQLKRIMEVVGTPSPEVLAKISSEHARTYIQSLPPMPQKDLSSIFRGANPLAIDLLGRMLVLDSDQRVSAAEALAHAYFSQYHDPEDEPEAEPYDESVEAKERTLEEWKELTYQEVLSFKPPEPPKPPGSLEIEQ

[5] = molecular target: cAMP-dependent protein kinase catalytic subunit alpha (Homo sapiens) (UniProt P17612)
[6] = molecular target: T1, Dual specificity mitogen-activated protein kinase kinase 6 (Homo sapiens) (UniProt P52564)
T1 sequence (whole entry): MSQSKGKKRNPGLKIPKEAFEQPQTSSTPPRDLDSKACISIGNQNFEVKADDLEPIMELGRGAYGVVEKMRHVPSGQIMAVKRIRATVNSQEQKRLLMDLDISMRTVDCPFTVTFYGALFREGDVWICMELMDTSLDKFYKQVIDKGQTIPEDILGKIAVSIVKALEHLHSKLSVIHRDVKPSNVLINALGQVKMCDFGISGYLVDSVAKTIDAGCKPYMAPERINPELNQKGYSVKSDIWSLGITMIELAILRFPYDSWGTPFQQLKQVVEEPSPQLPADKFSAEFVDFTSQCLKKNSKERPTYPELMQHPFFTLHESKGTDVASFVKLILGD

[7] = molecular target: T2, Calcium/calmodulin-dependent protein kinase type IV (Homo sapiens) (UniProt Q16566)
T2 sequence (whole entry): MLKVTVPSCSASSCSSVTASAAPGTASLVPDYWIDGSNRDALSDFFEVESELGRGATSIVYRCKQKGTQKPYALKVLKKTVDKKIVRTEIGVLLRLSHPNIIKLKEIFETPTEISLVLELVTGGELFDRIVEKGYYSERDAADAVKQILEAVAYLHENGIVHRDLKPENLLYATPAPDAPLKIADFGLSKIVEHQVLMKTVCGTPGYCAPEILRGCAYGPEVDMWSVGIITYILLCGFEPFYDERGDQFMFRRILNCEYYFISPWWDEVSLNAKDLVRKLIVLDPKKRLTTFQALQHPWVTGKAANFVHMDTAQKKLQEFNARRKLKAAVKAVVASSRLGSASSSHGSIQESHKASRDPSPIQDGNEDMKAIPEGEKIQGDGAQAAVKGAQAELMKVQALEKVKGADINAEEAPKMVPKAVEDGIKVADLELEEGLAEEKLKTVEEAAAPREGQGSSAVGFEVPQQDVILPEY

[8] = molecular target: Casein kinase I isoform gamma-3 (Homo sapiens) (UniProt Q9Y6M4)
[9] = molecular target: Serine/threonine-protein kinase PAK 5 (Homo sapiens) (UniProt Q9P286)
[10] = molecular target: Calcium/calmodulin-dependent protein kinase type II subunit gamma (Homo sapiens) (UniProt Q13555)
Sequence of Calcium/calmodulin-dependent protein kinase type II subunit gamma (Homo sapiens) (Q13555 whole entry): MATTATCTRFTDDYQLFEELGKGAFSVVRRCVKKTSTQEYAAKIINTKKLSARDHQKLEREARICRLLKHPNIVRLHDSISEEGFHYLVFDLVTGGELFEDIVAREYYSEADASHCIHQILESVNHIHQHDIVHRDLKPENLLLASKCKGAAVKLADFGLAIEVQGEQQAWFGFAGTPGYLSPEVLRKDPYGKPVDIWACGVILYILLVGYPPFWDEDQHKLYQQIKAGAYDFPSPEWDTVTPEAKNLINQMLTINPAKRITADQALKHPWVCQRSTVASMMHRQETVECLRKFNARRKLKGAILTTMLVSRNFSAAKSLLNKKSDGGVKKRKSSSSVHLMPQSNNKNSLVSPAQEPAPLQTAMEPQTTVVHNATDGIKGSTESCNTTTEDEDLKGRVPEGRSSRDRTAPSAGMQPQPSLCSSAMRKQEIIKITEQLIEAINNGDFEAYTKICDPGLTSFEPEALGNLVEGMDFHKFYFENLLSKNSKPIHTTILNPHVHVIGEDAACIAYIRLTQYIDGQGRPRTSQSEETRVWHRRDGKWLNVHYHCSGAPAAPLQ

[11] = molecular target: Serine/threonine-protein kinase 25 (Homo sapiens) (UniProt O00506)
[12] = molecular target: Serine/threonine-protein kinase PAK 4 (Homo sapiens) (UniProt O96013)
[13] = molecular target: T3, Serine/threonine-protein kinase 4 (Homo sapiens) (UniProt Q13043)
T3 sequence (whole entry): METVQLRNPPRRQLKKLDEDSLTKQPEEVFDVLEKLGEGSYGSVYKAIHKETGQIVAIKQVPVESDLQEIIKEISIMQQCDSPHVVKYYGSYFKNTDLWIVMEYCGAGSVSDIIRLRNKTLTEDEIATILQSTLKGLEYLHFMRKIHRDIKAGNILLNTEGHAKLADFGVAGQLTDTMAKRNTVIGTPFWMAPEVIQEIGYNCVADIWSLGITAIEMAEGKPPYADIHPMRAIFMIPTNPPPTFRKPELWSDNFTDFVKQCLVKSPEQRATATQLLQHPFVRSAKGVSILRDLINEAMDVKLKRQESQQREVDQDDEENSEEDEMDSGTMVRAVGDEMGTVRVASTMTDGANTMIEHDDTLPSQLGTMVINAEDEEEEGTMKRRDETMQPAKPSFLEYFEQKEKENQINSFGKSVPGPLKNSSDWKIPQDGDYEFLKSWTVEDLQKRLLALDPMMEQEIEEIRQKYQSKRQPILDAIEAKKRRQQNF

[14] = molecular target: Serine/threonine-protein kinase PAK 6 (Homo sapiens) (UniProt Q9NQU5)
Sequence of Serine/threonine-protein kinase PAK 6 (Homo sapiens) (Q9NQU5 whole entry, looked up): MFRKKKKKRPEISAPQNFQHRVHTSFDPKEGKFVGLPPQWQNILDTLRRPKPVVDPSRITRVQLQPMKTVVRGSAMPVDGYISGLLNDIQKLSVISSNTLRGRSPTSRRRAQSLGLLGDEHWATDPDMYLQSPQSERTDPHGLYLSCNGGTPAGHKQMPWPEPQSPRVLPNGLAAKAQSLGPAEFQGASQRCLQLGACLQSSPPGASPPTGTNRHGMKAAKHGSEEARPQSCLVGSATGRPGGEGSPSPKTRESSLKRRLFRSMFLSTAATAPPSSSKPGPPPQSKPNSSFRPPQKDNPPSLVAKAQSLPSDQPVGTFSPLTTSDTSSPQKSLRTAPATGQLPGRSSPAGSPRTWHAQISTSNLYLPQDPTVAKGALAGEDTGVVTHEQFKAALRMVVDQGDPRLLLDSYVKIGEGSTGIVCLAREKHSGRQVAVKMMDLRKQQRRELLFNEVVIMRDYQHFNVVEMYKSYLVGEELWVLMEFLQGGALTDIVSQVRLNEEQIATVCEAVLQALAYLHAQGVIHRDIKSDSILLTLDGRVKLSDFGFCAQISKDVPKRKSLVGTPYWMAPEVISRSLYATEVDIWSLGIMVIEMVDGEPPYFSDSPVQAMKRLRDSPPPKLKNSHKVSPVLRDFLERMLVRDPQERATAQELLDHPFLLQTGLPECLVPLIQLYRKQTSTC

[15] = molecular target: Serine/threonine-protein kinase 10 (Homo sapiens) (UniProt O94804)
Sequence of Serine/threonine-protein kinase 10 (Homo sapiens) (O94804 whole entry, looked up): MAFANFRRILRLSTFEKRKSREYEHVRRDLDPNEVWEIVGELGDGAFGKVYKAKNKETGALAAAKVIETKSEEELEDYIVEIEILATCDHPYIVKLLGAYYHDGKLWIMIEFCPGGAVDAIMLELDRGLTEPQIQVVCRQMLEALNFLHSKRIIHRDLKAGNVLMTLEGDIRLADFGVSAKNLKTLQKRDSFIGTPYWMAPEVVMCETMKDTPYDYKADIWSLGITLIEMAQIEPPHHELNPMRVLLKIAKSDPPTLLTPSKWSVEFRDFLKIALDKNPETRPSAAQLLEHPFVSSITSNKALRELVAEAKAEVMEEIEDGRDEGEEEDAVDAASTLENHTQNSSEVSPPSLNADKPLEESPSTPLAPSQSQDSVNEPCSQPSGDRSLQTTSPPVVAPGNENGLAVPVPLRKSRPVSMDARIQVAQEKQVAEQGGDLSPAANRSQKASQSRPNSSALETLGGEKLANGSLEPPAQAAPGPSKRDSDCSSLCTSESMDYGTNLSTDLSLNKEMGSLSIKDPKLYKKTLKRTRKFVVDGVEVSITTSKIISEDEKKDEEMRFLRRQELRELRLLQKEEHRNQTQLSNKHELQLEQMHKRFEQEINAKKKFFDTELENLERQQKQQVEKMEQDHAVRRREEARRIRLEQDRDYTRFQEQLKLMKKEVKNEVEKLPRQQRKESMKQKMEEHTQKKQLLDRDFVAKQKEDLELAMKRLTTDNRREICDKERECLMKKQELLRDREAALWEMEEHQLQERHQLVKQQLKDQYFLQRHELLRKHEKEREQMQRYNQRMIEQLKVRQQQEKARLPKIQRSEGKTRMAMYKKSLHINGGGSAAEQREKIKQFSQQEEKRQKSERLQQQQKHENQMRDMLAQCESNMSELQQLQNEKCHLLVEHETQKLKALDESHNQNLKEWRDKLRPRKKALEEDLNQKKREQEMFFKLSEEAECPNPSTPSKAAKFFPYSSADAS

[16] = molecular target: Serine/threonine-protein kinase pim-3 (Homo sapiens) (UniProt Q86V86)
[17] = molecular target: TRAF2 and NCK-interacting protein kinase (Homo sapiens) (UniProt Q9UKE5)
Sequence of TRAF2 and NCK-interacting protein kinase (Homo sapiens) (Q9UKE5 whole entry, looked up): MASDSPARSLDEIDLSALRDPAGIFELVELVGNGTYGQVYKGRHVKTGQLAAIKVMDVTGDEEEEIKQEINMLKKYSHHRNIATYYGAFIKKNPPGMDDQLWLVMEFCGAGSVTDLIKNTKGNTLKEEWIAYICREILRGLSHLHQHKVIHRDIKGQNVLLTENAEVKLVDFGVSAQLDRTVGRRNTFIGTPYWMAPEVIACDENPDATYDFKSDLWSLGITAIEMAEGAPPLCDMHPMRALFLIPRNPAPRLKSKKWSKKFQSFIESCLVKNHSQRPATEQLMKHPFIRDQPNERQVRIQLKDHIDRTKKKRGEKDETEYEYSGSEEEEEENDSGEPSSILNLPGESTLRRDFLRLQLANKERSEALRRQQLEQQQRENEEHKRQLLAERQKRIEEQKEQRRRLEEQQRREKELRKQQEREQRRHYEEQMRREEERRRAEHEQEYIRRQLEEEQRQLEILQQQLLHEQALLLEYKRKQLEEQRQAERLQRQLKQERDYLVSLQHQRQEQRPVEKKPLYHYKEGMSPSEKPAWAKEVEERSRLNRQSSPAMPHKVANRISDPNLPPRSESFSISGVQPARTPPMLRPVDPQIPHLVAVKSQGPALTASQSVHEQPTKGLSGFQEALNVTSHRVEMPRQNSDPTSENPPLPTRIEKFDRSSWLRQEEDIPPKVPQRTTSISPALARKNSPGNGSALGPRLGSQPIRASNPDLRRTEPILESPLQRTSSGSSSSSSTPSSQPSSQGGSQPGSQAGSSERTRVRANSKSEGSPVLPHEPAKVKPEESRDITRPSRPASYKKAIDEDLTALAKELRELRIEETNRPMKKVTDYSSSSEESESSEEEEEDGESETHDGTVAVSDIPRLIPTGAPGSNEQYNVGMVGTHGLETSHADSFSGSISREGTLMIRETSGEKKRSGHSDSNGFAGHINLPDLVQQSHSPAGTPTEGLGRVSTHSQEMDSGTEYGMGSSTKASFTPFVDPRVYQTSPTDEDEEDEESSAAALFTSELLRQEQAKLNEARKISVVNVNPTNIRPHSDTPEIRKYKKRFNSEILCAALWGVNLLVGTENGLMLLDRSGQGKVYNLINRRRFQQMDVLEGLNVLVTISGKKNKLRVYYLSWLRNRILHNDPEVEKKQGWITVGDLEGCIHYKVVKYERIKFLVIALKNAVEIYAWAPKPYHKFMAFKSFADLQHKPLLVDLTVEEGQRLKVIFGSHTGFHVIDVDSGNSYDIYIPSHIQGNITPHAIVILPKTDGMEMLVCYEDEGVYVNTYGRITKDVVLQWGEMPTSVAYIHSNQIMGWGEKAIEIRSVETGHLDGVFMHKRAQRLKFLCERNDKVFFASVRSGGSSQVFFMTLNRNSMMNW

[18] = molecular target: T4, Serine/threonine-protein kinase VRK3 (Homo sapiens) (UniProt Q8IV63)
T4 sequence (whole entry): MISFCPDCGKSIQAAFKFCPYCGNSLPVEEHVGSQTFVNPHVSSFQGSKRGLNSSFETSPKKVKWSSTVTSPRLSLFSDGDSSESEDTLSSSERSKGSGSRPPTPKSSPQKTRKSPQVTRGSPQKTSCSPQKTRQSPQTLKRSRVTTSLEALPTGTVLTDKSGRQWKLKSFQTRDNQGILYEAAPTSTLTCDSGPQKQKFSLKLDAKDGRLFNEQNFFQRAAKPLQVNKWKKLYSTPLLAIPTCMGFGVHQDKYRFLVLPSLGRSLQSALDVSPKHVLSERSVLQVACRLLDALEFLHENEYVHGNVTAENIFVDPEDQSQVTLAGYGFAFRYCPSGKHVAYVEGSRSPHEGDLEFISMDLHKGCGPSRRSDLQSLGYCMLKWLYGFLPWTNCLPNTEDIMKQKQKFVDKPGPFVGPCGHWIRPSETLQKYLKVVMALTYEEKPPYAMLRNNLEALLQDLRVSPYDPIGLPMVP

[19] = molecular target: Mitogen-activated protein kinase 6 (Homo sapiens) (UniProt Q16659)

Sequence of Serine/threonine-protein kinase VRK2 (Homo sapiens) (Q86Y07 whole entry): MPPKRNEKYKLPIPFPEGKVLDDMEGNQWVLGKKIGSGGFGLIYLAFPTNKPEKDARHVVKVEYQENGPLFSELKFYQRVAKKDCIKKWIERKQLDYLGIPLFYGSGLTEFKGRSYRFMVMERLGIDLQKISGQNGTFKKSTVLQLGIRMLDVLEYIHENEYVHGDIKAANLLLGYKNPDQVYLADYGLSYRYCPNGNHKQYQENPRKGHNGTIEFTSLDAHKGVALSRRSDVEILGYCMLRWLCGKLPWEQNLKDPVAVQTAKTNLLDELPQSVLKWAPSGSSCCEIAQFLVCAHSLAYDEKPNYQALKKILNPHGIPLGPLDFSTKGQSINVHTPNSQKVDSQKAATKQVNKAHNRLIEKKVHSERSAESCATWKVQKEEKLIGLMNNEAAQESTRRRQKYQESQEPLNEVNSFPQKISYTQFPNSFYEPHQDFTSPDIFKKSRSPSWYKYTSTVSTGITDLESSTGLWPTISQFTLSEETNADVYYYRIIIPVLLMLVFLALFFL
Sequence of Serine/threonine-protein kinase RIO2 (Homo sapiens) (Q9BVS4 whole entry, looked up): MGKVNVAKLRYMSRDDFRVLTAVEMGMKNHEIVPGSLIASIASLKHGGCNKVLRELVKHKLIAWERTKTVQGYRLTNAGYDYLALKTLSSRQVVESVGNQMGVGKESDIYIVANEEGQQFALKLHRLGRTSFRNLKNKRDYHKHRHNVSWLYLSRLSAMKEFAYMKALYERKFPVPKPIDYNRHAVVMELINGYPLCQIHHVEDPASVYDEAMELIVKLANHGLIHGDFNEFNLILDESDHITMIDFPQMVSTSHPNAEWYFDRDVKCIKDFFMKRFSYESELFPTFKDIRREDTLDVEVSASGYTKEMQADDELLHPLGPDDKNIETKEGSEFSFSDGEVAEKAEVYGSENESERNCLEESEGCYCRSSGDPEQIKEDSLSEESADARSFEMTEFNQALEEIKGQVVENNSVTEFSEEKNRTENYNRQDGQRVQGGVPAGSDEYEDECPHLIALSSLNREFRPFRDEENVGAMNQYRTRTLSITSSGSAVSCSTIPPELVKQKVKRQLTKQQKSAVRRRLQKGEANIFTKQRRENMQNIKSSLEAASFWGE

O=C1Nc2ccc(S(=O)(=O)O)cc2/C1=C1/Nc2ccccc2/C1=N\O
ΔTm [1]: 4 °C | ΔTm [2]: 5.6 °C | ΔTm [3]: 1.2 °C | ΔTm [4]: 1.4 °C | ΔTm [5]: 1.2 °C | ΔTm [6]: 3.5 °C | ΔTm [7]: 1.3 °C | ΔTm [8]: 3.7 °C | ΔTm [9]: 2.1 °C | ΔTm [10]: 2.5 °C | ΔTm [11]: 2.2 °C | ΔTm [12]: 2.7 °C | ΔTm [13]: 7.4 °C | ΔTm [14]: 3.2 °C | ΔTm [15]: 0.5 °C | ΔTm [16]: 5.1 °C | ΔTm [17]: 2.4 °C | ΔTm [18]: 1.9 °C | ΔTm [19]: 1.1 °C

O=S(=O)(c1cccc2c(Cl)cccc12)N1CCCNCC1
ΔTm [1]: 0 °C | ΔTm [2]: 0.5 °C | ΔTm [3]: 0.3 °C | ΔTm [4]: -0.3 °C | ΔTm [5]: 1.4 °C | ΔTm [6]: 0 °C | ΔTm [7]: 0 °C | ΔTm [8]: 0.1 °C | ΔTm [9]: 0.1 °C | ΔTm [10]: 0.3 °C | ΔTm [11]: 0.2 °C | ΔTm [12]: 0.8 °C | ΔTm [13]: 0.9 °C | ΔTm [14]: -0.1 °C | ΔTm [15]: 0.4 °C | ΔTm [16]: 3.5 °C | ΔTm [17]: 0.1 °C | ΔTm [18]: 0.1 °C | ΔTm [19]: 0 °C

O=c1c(O)c(-c2ccc(O)c(O)c2)oc2cc(O)cc(O)c12 [QUERCETIN]
ΔTm [1]: 2.7 °C | ΔTm [2]: 5.6 °C | ΔTm [3]: 4.2 °C | ΔTm [4]: 2.2 °C | ΔTm [5]: 4.2 °C | ΔTm [6]: 3.6 °C | ΔTm [7]: 6.7 °C | ΔTm [8]: 2.9 °C | ΔTm [9]: 0.5 °C | ΔTm [10]: 4.9 °C | ΔTm [11]: 5.3 °C | ΔTm [12]: 2.3 °C | ΔTm [13]: 5.4 °C | ΔTm [14]: 1.1 °C | ΔTm [15]: 5.5 °C | ΔTm [16]: 8.8 °C | ΔTm [17]: 3.3 °C | ΔTm [18]: -0.2 °C | ΔTm [19]: 0.8 °C

C=CNC#N
ΔTm [1]: 0.2 °C | ΔTm [2]: 0 °C | ΔTm [3]: 0 °C | ΔTm [4]: -0.1 °C | ΔTm [5]: 1.6 °C | ΔTm [6]: 0.3 °C | ΔTm [7]: 0.9 °C | ΔTm [8]: 0.8 °C | ΔTm [9]: 0.5 °C | ΔTm [10]: 0.5 °C | ΔTm [11]: 0.4 °C | ΔTm [12]: 1.8 °C | ΔTm [13]: 1.9 °C | ΔTm [14]: 0.5 °C | ΔTm [15]: -0.3 °C | ΔTm [16]: 1 °C | ΔTm [17]: 0.1 °C | ΔTm [18]: 0.9 °C | ΔTm [19]: 1 °C

O=c1cc(N2CCOCC2)oc2c1ccc1ccccc12
ΔTm [1]: -0.1 °C | ΔTm [2]: 0.3 °C | ΔTm [3]: 0.4 °C | ΔTm [4]: 1.1 °C | ΔTm [5]: 0.2 °C | ΔTm [6]: 0 °C | ΔTm [7]: -0.1 °C | ΔTm [8]: 0 °C | ΔTm [9]: 0 °C | ΔTm [10]: 0.2 °C | ΔTm [11]: 0.6 °C | ΔTm [12]: 0.2 °C | ΔTm [13]: 0.2 °C | ΔTm [14]: -0.3 °C | ΔTm [15]: 0.4 °C | ΔTm [16]: 2 °C | ΔTm [17]: 0.3 °C | ΔTm [18]: 1 °C | ΔTm [19]: 0.4 °C

CCOc1cc2ncnc(Nc3cccc(Br)c3)c2cc1OCC
ΔTm [1]: 0.6 °C | ΔTm [2]: 2.5 °C | ΔTm [3]: 3.5 °C | ΔTm [4]: 2.2 °C | ΔTm [5]: 0.8 °C | ΔTm [6]: 0.3 °C | ΔTm [7]: 0.3 °C | ΔTm [8]: -0.2 °C | ΔTm [9]: 0.4 °C | ΔTm [10]: 0.5 °C | ΔTm [11]: 1.5 °C | ΔTm [12]: 0.4 °C | ΔTm [13]: 2.2 °C | ΔTm [14]: 0.8 °C | ΔTm [15]: 10.3 °C | ΔTm [16]: 2.7 °C | ΔTm [17]: 3.1 °C | ΔTm [18]: 0.1 °C | ΔTm [19]: 0.2 °C

CN(C)CCCn1cc(C2=C(c3c[nH]c4ccccc34)C(=O)NC2=O)c2ccccc21 [GF-109203]
ΔTm [1]: 0.9 °C | ΔTm [2]: 7.8 °C | ΔTm [3]: 0.3 °C | ΔTm [4]: 0.7 °C | ΔTm [5]: 3.6 °C | ΔTm [6]: 1.1 °C | ΔTm [7]: 1.1 °C | ΔTm [8]: 0.3 °C | ΔTm [9]: 1 °C | ΔTm [10]: 2.9 °C | ΔTm [11]: 2.7 °C | ΔTm [12]: 2.5 °C | ΔTm [13]: 5.7 °C | ΔTm [14]: 2.4 °C | ΔTm [15]: 6.7 °C | ΔTm [16]: 9.1 °C | ΔTm [17]: 2 °C | ΔTm [18]: 0 °C | ΔTm [19]: -0.2 °C

COc1cccc(-c2cc(=O)c3ccccc3o2)c1N
ΔTm [1]: 0.2 °C | ΔTm [2]: -0.1 °C | ΔTm [3]: 0.5 °C | ΔTm [4]: 0.2 °C | ΔTm [5]: 0.3 °C | ΔTm [6]: -0.1 °C | ΔTm [7]: -0.1 °C | ΔTm [8]: 0.1 °C | ΔTm [9]: -0.2 °C | ΔTm [10]: 0.1 °C | ΔTm [11]: 0.5 °C | ΔTm [12]: 0.5 °C | ΔTm [13]: -0.1 °C | ΔTm [14]: 0.4 °C | ΔTm [15]: 0.4 °C | ΔTm [16]: 0.7 °C | ΔTm [17]: -0.1 °C | ΔTm [18]: 0.6 °C | ΔTm [19]: 0.3 °C

COc1cc(C[C@H]2C(=O)OC[C@@H]2Cc2ccc(OC)c(OC)c2)ccc1O [ARCTIGENIN]
ΔTm [1]: 0.5 °C | ΔTm [2]: -0.2 °C | ΔTm [3]: -0.2 °C | ΔTm [4]: -0.2 °C | ΔTm [5]: 0.2 °C | ΔTm [6]: 0.3 °C | ΔTm [7]: -0.5 °C | ΔTm [8]: 0.2 °C | ΔTm [9]: 0.1 °C | ΔTm [10]: 0.3 °C | ΔTm [11]: 0.1 °C | ΔTm [12]: 0.8 °C | ΔTm [13]: 0.8 °C | ΔTm [14]: 0.1 °C | ΔTm [15]: 0.7 °C | ΔTm [16]: 0.6 °C | ΔTm [17]: -0.2 °C | ΔTm [18]: 0.4 °C | ΔTm [19]: 0.2 °C

COc1ccc(CNc2nc(N(CCO)CCO)nc3c2ncn3C(C)C)cc1
ΔTm [1]: 1.4 °C | ΔTm [2]: 1.3 °C | ΔTm [3]: 0.3 °C | ΔTm [4]: 1.2 °C | ΔTm [5]: 0.5 °C | ΔTm [6]: 0.1 °C | ΔTm [7]: 0.4 °C | ΔTm [8]: 1.7 °C | ΔTm [9]: 1.1 °C | ΔTm [10]: 0.3 °C | ΔTm [11]: 1.5 °C | ΔTm [12]: 1.7 °C | ΔTm [13]: 0.4 °C | ΔTm [14]: 1.2 °C | ΔTm [15]: 0.7 °C | ΔTm [16]: 0.2 °C | ΔTm [17]: 0.5 °C | ΔTm [18]: 0.4 °C | ΔTm [19]: -0.4 °C

COc1ccc2c(c[n+](C)c3c4cc5c(cc4ccc23)OCO5)c1OC [CHELERYTHRINE CHLORIDE]
ΔTm [1]: 0 °C | ΔTm [2]: -1.3 °C | ΔTm [3]: -0.4 °C | ΔTm [4]: 0.6 °C | ΔTm [5]: 1.4 °C | ΔTm [6]: -6.6 °C | ΔTm [7]: -0.6 °C | ΔTm [8]: 0.2 °C | ΔTm [9]: -1.7 °C | ΔTm [10]: -0.2 °C | ΔTm [11]: -0.3 °C | ΔTm [12]: -3.8 °C | ΔTm [13]: -0.4 °C | ΔTm [14]: -3.3 °C | ΔTm [15]: -1.1 °C | ΔTm [16]: -0.9 °C | ΔTm [17]: -1.3 °C | ΔTm [18]: -0.6 °C | ΔTm [19]: -0.3 °C
